Test results from DBAASP.
In brackets after ≈: the same amount, converted by molar mass. Values belong to the compound of their own block, whether it stands above or below them.

Experiments:
Experiment in all cases: ≥ marks a high value that may be exact or a test limit, other limits are often not marked, values filed in µg/mL are converted to µM
[1] = test system: Klebsiella pneumoniae ATCC BAA-2146
[2] = test system: Escherichia coli ATCC 25922
[3] = test system: Klebsiella pneumoniae ATCC 700603
[4] = test system: Klebsiella pneumoniae ATCC 13883
[5] = test system: Pseudomonas aeruginosa ATCC 27853
Pseudomonas aeruginosa = test system: Pseudomonas aeruginosa
[6] = test system: Acinetobacter baumannii ATCC 19606
[7] = test system: Candida albicans ATCC 90028
Klebsiella pneumoniae = test system: Klebsiella pneumoniae
[8] = test system: Cryptococcus neoformans ATCC 208821
[9] = test system: Bacillus subtilis ATCC 6051
Acinetobacter baumannii = test system: Acinetobacter baumannii
[10] = test system: Staphylococcus aureus ATCC 43300
[11] = test system: Listeria monocytogenes ATCC 19115
[12] = test system: Candida albicans ATCC 24433
[13] = test system: Staphylococcus epidermidis ATCC 12228
Bacillus subtilis = test system: Bacillus subtilis
[14] = test system: Staphylococcus aureus ATCC BAA-44
[15] = test system: Salmonella enterica subsp. enterica serovar Typhimurium ATCC 14028
[16] = test system: Staphylococcus epidermidis ATCC 51625
Escherichia coli = test system: Escherichia coli
[17] = test system: Enterococcus faecalis ATCC 29212
[18] = test system: Staphylococcus aureus ATCC 25923
[19] = test system: Streptococcus pyogenes ATCC 19615
[20] = test system: Listeria monocytogenes EGD
Staphylococcus aureus = test system: Staphylococcus aureus
Streptococcus sanguinis = test system: Streptococcus sanguinis
[21] = test system: Candida albicans ATCC 2002
Escherichia coli ML-35p = test system: Escherichia coli ML-35p

MIC [12]: ≥ 100 µM | MIC [2]: 100 µM (≈ 195 µg/mL) | MIC [13]: 100 µM (≈ 195 µg/mL)
Structure (SMILES): CC[C@H](C)[C@H](NC(=O)CNC(=O)CNC(=O)[C@H](C)NC(=O)[C@@H](NC(=O)[C@H](CCCCN)NC(=O)[C@@H]1CCCN1C(=O)[C@@H](NC(=O)[C@H](CC(C)C)NC(=O)[C@H](CO)NC(=O)[C@H](CC(C)C)NC(=O)[C@@H](N)Cc1ccccc1)[C@@H](C)CC)[C@@H](C)CC)C(=O)N[C@@H](C)C(=O)N[C@@H](CO)C(=O)N[C@@H](CC(C)C)C(=O)N[C@H](C(=O)N[C@@H](CCCCN)C(=O)N[C@@H](CC(=O)O)C(=O)N[C@@H](CC(C)C)C(N)=O)C(C)C [FLSLIPKIAGGIASLVKDL]

MIC [12]: ≥ 50 µM | MIC [2]: 25 µM (≈ 48.8 µg/mL) | MIC [13]: 6.25 µM (≈ 12.2 µg/mL)
Structure (SMILES): CC[C@H](C)[C@H](NC(=O)CNC(=O)CNC(=O)[C@H](C)NC(=O)[C@@H](NC(=O)[C@H](CCCCN)NC(=O)[C@@H]1CCCN1C(=O)[C@@H](NC(=O)[C@H](CC(C)C)NC(=O)[C@H](CO)NC(=O)[C@H](CC(C)C)NC(=O)[C@@H](N)Cc1ccccc1)[C@@H](C)CC)[C@@H](C)CC)C(=O)N[C@@H](C)C(=O)N[C@@H](CO)C(=O)N[C@@H](CC(C)C)C(=O)N[C@H](C(=O)N[C@@H](CCCCN)C(=O)N[C@@H](CC(N)=O)C(=O)N[C@@H](CC(C)C)C(N)=O)C(C)C [FLSLIPKIAGGIASLVKNL]

MIC [2]: 32 µM (≈ 69.6 µg/mL) | MIC [5]: 16 µM (≈ 34.8 µg/mL) | MIC [18]: 32 µM (≈ 69.6 µg/mL) | MIC [20]: 8 µM (≈ 17.4 µg/mL)
Structure (SMILES): CC(C)C[C@H](NC(=O)[C@H](CC(C)C)NC(=O)[C@H](CCC(N)=O)NC(=O)[C@H](CCCCN)NC(=O)[C@H](CC(C)C)NC(=O)[C@H](CCCCN)NC(=O)[C@H](CCCCN)NC(=O)[C@@H](N)CC(C)C)C(=O)NCC(=O)N[C@@H](CCCCN)C(=O)N[C@@H](CC(C)C)C(=O)N[C@@H](CO)C(=O)N[C@@H](CCC(=O)O)C(=O)N[C@@H](Cc1ccccc1)C(=O)N[C@@H](C)C(=O)N[C@@H](C)C(=O)N[C@@H](C)C(=O)N[C@@H](Cc1ccccc1)C(=O)N[C@H](C(=O)N[C@@H](C)C(N)=O)C(C)C [LKKLKQLLGKLSEFAAAFVA]

MIC [20]: ≥ 128 µM
Structure (SMILES): CC(C)C[C@H](NC(=O)[C@H](C)NC(=O)[C@@H](NC(=O)[C@H](C)NC(=O)[C@H](CC(C)C)NC(=O)[C@H](CCCCN)NC(=O)[C@H](Cc1ccccc1)NC(=O)[C@H](CCCCN)NC(=O)[C@H](C)NC(=O)[C@@H](N)CO)C(C)C)C(=O)NCC(=O)N[C@@H](CCC(N)=O)C(=O)N[C@@H](Cc1ccccc1)C(=O)N[C@@H](CCCCN)C(=O)N[C@@H](CCC(=O)O)C(=O)N[C@@H](CCCCN)C(=O)N[C@@H](CC(C)C)C(=O)N[C@@H](CC(C)C)C(=O)N[C@@H](CC(C)C)C(=O)N[C@@H](C)C(N)=O [SAKFKLAVALGQFKEKLLLA]

MIC (Bacillus subtilis): 2.68 µM (≈ 9.37 µg/mL) | MIC [5]: > 28.5 µM | MIC [21]: 1.61 µM (≈ 5.63 µg/mL) | MIC [18]: 1.34 µM (≈ 4.69 µg/mL) | MIC (Escherichia coli ML-35p): 7.13 µM (≈ 25 µg/mL)
Structure (SMILES): CC[C@H](C)[C@H](NC(=O)[C@H](C)NC(=O)[C@@H](NC(=O)[C@@H](NC(=O)[C@H](CCCCN)NC(=O)[C@@H](NC(=O)[C@H](CCCCN)NC(=O)[C@H](CC(=O)O)NC(=O)[C@H](CCCN=C(N)N)NC(=O)[C@@H](NC(=O)[C@@H](N)CO)[C@@H](C)CC)[C@@H](C)CC)[C@@H](C)O)[C@@H](C)CC)C(=O)N[C@@H](CC(=O)O)C(=O)N[C@@H](CC(C)C)C(=O)N[C@@H](C)C(=O)N[C@@H](CCCCN)C(=O)N[C@@H](CO)C(=O)N[C@@H](C)C(=O)NCC(=O)N[C@H](C(=O)NCC(=O)N[C@H](C(=O)N[C@@H](CC(C)C)C(=O)N[C@@H](CCCCN)C(=O)N[C@H](C(=O)N[C@@H](CC(C)C)C(=O)N[C@H](C(=O)N[C@H]1CSSC[C@@H](C(=O)O)NC(=O)[C@H](CO)NC(=O)[C@H](CCCCN)NC(=O)[C@H](CC(=O)O)NC(=O)[C@H](CC(C)C)NC(=O)[C@H](CCCCN)NC1=O)[C@@H](C)CC)[C@@H](C)O)C(C)C)[C@@H](C)O [SIRDKIKTIAIDLAKSAGTGVLKTLICKLDKSC]

More lines, now with the values behind:

Structure (SMILES): CC[C@H](C)[C@@H]1NC(=O)CNC(=O)[C@H](CCCN=C(N)N)NC(=O)[C@H](Cc2ccc(O)cc2)NC(=O)[C@@H]2CSSC[C@H](NC1=O)C(=O)N[C@@H](Cc1ccc(O)cc1)C(=O)N[C@@H](C)C(=O)N[C@@H](CCCN=C(N)N)C(=O)N[C@H](C(=O)N[C@@H](CCCN=C(N)N)C(=O)O)CSSC[C@H](NC(=O)[C@H](Cc1c[nH]c3ccccc13)NC(=O)[C@@H](N)CCCCN)C(=O)N[C@@H](Cc1ccccc1)C(=O)N[C@@H](CCCN=C(N)N)C(=O)N[C@@H](C(C)C)C(=O)N2 [KWCFRVCYRGICYARCR]
MIC [1]: 0.115 µM (≈ 0.25 µg/mL) | MIC [2]: 0.0572 µM (≈ 0.125 µg/mL) | MIC [3]: 0.229 µM (≈ 0.499 µg/mL) | MIC [4]: 0.0275 µM (≈ 0.0599 µg/mL) | MIC [5]: 0.0572 µM (≈ 0.125 µg/mL) | MIC (Pseudomonas aeruginosa): 0.115 µM (≈ 0.25 µg/mL) | MIC [6]: 0.0572 µM (≈ 0.125 µg/mL) | MIC [7]: 3.66 µM (≈ 7.99 µg/mL) | MIC (Klebsiella pneumoniae): 0.458 µM (≈ 0.998 µg/mL) | MIC [8]: 0.115 µM (≈ 0.25 µg/mL) | MIC [9]: 0.0572 µM (≈ 0.125 µg/mL) | MIC (Acinetobacter baumannii): 0.0572 µM (≈ 0.125 µg/mL) | MIC [10]: 0.229 µM (≈ 0.499 µg/mL)

Structure (SMILES): CC(C)C[C@H](NC(=O)[C@H](Cc1ccccc1)NC(=O)[C@@H]1CCCN1C(=O)[C@@H]1CCCN1C(=O)[C@H](CC(N)=O)NC(=O)[C@@H](NC(=O)[C@@H](NC(=O)[C@@H]1CCCN1C(=O)[C@@H](N)[C@@H](C)O)C(C)C)C(C)C)C(=O)N[C@@H](CCC(N)=O)C(=O)N[C@@H](CCC(N)=O)C(=O)N[C@H](C(N)=O)[C@@H](C)O [TPVVNPPFLQQT]
MIC [11]: ≥ 382 µM

Structure (SMILES): CC(C)C[C@H](NC(=O)[C@H](CO)NC(=O)[C@H](CCCN=C(N)N)NC(=O)[C@H](CCCCN)NC(=O)[C@@H](NC(=O)[C@@H](NC(=O)CNC(=O)[C@H](CCCN=C(N)N)NC(=O)[C@H](Cc1cnc[nH]1)NC(=O)[C@H](Cc1c[nH]c2ccccc12)NC(=O)[C@H](Cc1ccccc1)NC(=O)[C@H](Cc1cnc[nH]1)NC(=O)[C@H](Cc1ccc(O)cc1)NC(=O)[C@@H](N)Cc1ccc(O)cc1)C(C)C)[C@@H](C)O)C(=O)N[C@@H](CO)C(=O)N1CCC[C@H]1C(=O)N[C@@H](Cc1cnc[nH]1)C(=O)N[C@@H](CCCN=C(N)N)C(=O)N1CCC[C@H]1C(=O)N[C@@H](CCCN=C(N)N)C(=O)N[C@@H](Cc1cnc[nH]1)C(=O)N[C@@H](CO)C(=O)N[C@@H](CCCN=C(N)N)C(=O)O [YYHFWHRGVTKRSLSPHRPRHSR]
MIC (Bacillus subtilis): 4 µM (≈ 11.8 µg/mL) | MIC [4]: 2 µM (≈ 5.92 µg/mL) | MIC [5]: 4 µM (≈ 11.8 µg/mL) | MIC [14]: 6 µM (≈ 17.8 µg/mL) | MIC [15]: 4 µM (≈ 11.8 µg/mL) | MIC [16]: 6 µM (≈ 17.8 µg/mL) | MIC (Escherichia coli): 4 µM (≈ 11.8 µg/mL) | MIC [17]: 4 µM (≈ 11.8 µg/mL) | MIC [18]: 4 µM (≈ 11.8 µg/mL) | MIC [19]: 6 µM (≈ 17.8 µg/mL)

Structure (SMILES): NC(=O)[C@H](Cc1ccccc1)NC(=O)[C@H](Cc1ccccc1)NC(=O)[C@H](Cc1ccccc1)NC(=O)[C@H](Cc1ccccc1)NC(=O)[C@H](Cc1ccccc1)NC(=O)[C@H](Cc1ccccc1)NC(=O)[C@@H](N)Cc1ccccc1 [FFFFFFF]
MIC (Staphylococcus aureus): 3.3 µM (≈ 3.46 µg/mL) | MIC (Streptococcus sanguinis): 3.3 µM (≈ 3.46 µg/mL)

Structure (SMILES): CC(C)C[C@H](N)C(=O)N[C@@H](Cc1ccccc1)C(=O)N[C@@H](Cc1ccccc1)C(=O)N[C@@H](Cc1ccccc1)C(=O)N[C@@H](Cc1ccccc1)C(=O)N[C@@H](Cc1ccccc1)C(N)=O [LFFFFF]
MIC (Staphylococcus aureus): 29.4 µM (≈ 25.5 µg/mL) | MIC (Streptococcus sanguinis): ≥ 32.6 µM
